Test [1] has as its target T1, α3 GlyR (Rattus norvegicus, UniProt P24524).
T1 sequence (P24524 34-464): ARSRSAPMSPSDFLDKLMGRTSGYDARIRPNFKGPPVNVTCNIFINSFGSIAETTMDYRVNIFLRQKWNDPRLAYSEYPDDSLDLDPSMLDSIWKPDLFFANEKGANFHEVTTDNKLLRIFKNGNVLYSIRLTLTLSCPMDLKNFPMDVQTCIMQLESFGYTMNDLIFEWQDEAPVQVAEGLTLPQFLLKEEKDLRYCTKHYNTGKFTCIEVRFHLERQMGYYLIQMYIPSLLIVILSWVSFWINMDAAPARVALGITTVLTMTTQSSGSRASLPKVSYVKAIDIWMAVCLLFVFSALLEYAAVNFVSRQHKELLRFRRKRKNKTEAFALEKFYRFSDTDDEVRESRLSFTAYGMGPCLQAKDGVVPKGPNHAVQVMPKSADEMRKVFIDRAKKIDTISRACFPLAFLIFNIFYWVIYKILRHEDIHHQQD
Put plainly: whole-cell patch clamp, potentiation of glycine current. Format: cell-based. The settings on record: HEK 293 cells, allosteric potentiator, sustained application. (In general: Patch clamp records ionic current or voltage across a cell membrane.)

For test [2], the target named is T1, α3 GlyR. Put plainly: whole-cell patch clamp, glycine currents. Format: cell-based.

For `C=C(C)[C@@H]1CCC(C)=C[C@H]1c1c(O)cc(CCCCC)cc1O` [CBD, cannabidiol], on α3 GlyR [1], the “% potentiation at 1 μM” value was 491 ± 101%.

A word on the EC50: it is the midpoint of the concentration-response curve. Read a high EC50 as weaker potency. `NCC(=O)O` [glycine] registered an EC50 at α3 GlyR [2] of 377 ± 45 µM.
